Reference: US9969755B2, “Photodynamic therapy photosensitizers” (The Royal Institution for the Advancement of …, priority 2016, dated 2018)

Key:
[1] = Autocatalytic activation of compound 7 (monitoring ^1O2 phosphorescence); format: physicochemical
Protocol: ^1O2 phosphorescence (1270 nm) was monitored with a Hamamatsu NIR detector after different irradiation periods with a Nd:YAG laser operating at 10 Hz. The energy of each laser pulse was 10 mJ exciting at 532 nm. Using the same procedure as described above (Determination of ^1O2 Quantum Yield), a total of 3 laser shots were applied to acquire a trace at different time intervals following the continuous irradiation by a second Nd:YAG laser setup. Laser excitation was performed at 10 Hz, providing one laser output for every discharge of the flashlamp. The energy of each laser pulse was 10 mJ. To prepare the samples with PMHC, we first added to the solvent (acetonitrile, air equilibrated) the desired amount of PMHC from a stock solution. Then, compound 7 was dissolved until reaching Abs=0.3 ([7]=5.8 μM). For the samples containing compound 4, we first dissolved 4 in a stock solution of acetonitrile containing 0.12 μM of PMHC and then the desired volume of this solution was added to the solution containing 7 and same concentration of the antioxidant (0.12 μM of PMHC).

[2] = Autocatalytic activation of compound 7 (monitoring fluorescence); format: physicochemical
Protocol: The increase in the fluorescence emission due to autocatalytic activation of compound 7 was followed by continuous irradiation at 532 nm and 1.6 mW/cm^2 in air equilibrated acetonitrile using a PTI QuantaMaster spectrofluorimeter. The emission at 557 nm was measured as a function of the irradiation time. Samples were prepared as described above (see Autocatalytic Activation of Compound 7 (Monitoring ^1O2 Phosphorescence)).

[3] = system: clinical biofilm-producing methicillin-resistant Staphylococcus aureus (MRSA); experiment: Photodynamic inactivation of MRSA with ciprofloxacin as stressor; format: cell-based
Excerpt: The strain was a clinical biofilm-producing methicillin-resistant Staphylococcus aureus (MRSA). […] Samples “without exposure to light” were kept wrapped with aluminum foil. Samples “with exposure to light” were irradiated with a LED panel having the following characteristics: 1.6 mW/cm^2 power output with a maxima (centered) at 520 nm and a full width at half maximum (FWHM) of 31 nm. The LED panel consisted of 5 lamps and was placed 10 cm from the sample.

Compound: CC1=C(Br)C(C)=[N+]2C1=C(CC1(C)CCc3c(C)c(O)c(C)c(C)c3O1)c1c(C)c(Br)c(C)n1[B-]2(F)F (centres unmarked) [Compound 7, 8-((6-Hydroxy-2,5,7,8-tetramethylchroman-2-yl)-methyl)-2,6-dibromo-1,3,5,7-tetramethyl]
- φΔ ([1]; 250 μM PMHC added, before prolonged irradiation): undetectable
- ^1O2 phosphorescence lifetime ([1]; 250 μM PMHC added, within the instrument response): ~3 μs
- increase in φΔ after prolonged irradiation ([1]; 250 μM PMHC, 8 hs, ˜300,000 laser shots, 10 mJ/pulse): ca. 25 fold
- fraction of photoexcited 7 undergoing activation through reaction with its own singlet oxygen ([1]; assuming geminate quenching 100% effective, 5-3% chemical): smaller than 2×10^−4
- fraction of photoexcited 7 effectively sensitizing singlet oxygen ([1]; assuming keT˜25×kISC and k′eT˜10×kq[O2]): < 4×10^−3
- increase in φΔ over irradiation time ([1]; direct 532 nm laser excitation, air equilibrated acetonitrile, no PMHC): ca. 6 fold
- fraction of 7 pre-oxidized during sample preparation [2]: less than 5%
- Fluorescence intensity enhancements ([2]; 0.12 μM sacrificial PMHC, continuous irradiation at 532 nm): ~30 fold
- k, apparent second order rate constant for autocatalytic activation ([2]; fit to equation 9, different conditions): ~133 M⁻¹ s⁻¹
- colony forming units upon prolonged illumination, single agent ([3]; light 0 to 60 minutes, 1.6 mW/cm^2, 520 nm, ciprofloxacin 1 microgram per milliliter only or Br2B-PMHC 10 micromolar only): no observed reduction in colony forming units
- colony forming units upon illumination in the presence of ciprofloxacin ([3]; light, 1 microgram per milliliter ciprofloxacin and 5 or 10 micromolar Br2B-PMHC): clear reduction in colony forming units
